Structures are written as SMILES. Calls of active or inactive are those of the source. The calls are words filed in the database; no cut-off is given here.

Data set [1] in a line: Inhibition of beta-hematin formation incubated for 5 to 6 hrs by NP40 detergent-mediated assay.
Data set [2] concerns Plasmodium falciparum. As to the kind of experiment: Antimalarial activity against chloroquine-sensitive asexual erythrocyte stage of Plasmodium falciparum NF54 infected in human type O+ erythrocytes assessed as growth inhibition incubated for 48 hrs by NBT dye based LDH release assay. Conditions: NF54, 48 h. In kind it is functional, cell-based. (In general: LDH leaks from cells whose membrane has failed.)

The test system of data set [3] is Plasmodium falciparum. Nature of the data set: Antimalarial activity against chloroquine-resistant asexual erythrocyte stage of Plasmodium falciparum K1 infected in human type O+ erythrocytes assessed as growth inhibition incubated for 48 hrs by NBT dye based LDH release assay. In kind it is functional, cell-based. Conditions: K1, 48 h.
The nature of data set [4]: Resistance index, ratio of IC50 for chloroquine-resistant asexual erythrocyte stage of Plasmodium falciparum K1 infected in human type O+ erythrocytes to IC50 for chloroquine-sensitive asexual erythrocyte stage of Plasmodium falciparum NF54 infected in human type O+ erythrocytes. In kind it is functional.
The test system of data set [5] is Plasmodium falciparum. Nature of the data set: Antimalarial activity against chloroquine-sensitive asexual erythrocyte stage of Plasmodium falciparum D6 infected in human type O+ erythrocytes assessed as growth inhibition incubated for 48 hrs by NBT dye based LDH release assay. In kind it is functional, cell-based. Conditions: D6, 48 h.
Data set [6] can be described thus: Selectivity index, ratio of cytotoxic activity against CHO cells to IC50 for Plasmodium falciparum infected in human type O+ erythrocytes. In kind it is toxicity, cell-based. Conditions: hamster, read-out: Selectivity Index.
Data set [7] is described as follows: Cytotoxicity against CHO cells assessed as decrease in cell viability by MTT assay. Conditions: chinese hamster. In kind it is toxicity, cell-based, Cricetulus griseus.
Data set [8] deals with Plasmodium falciparum. As to the kind of experiment: Antimalarial activity against chloroquine-sensitive Plasmodium falciparum D6 infected in human erythrocytes assessed as inhibition of beta-hematin formation by measuring increase in intracellular free heme level. The data set is classed as functional, cell-based.
Data set [9] deals with Plasmodium falciparum. As to the kind of experiment: Antimalarial activity against chloroquine-sensitive asexual erythrocyte stage of Plasmodium falciparum NF54 infected in human type O+ erythrocytes assessed as smaller and less complex DNA by flow cytometry. The data set is classed as functional, cell-based.
The subject of data set [10] is Plasmodium falciparum. As to the kind of experiment: Antimalarial activity against chloroquine-sensitive asexual erythrocyte stage of Plasmodium falciparum NF54 infected in human type O+ erythrocytes assessed as decrease in DNA level by flow cytometry. The data set is classed as functional, cell-based. Background: In flow cytometry, cells or beads pass a laser one at a time.

Data set [11] has as its system Plasmodium falciparum. Nature of the data set: Antimalarial activity against chloroquine-sensitive asexual erythrocyte stage of Plasmodium falciparum NF54 infected in human type O+ erythrocytes assessed as pyknosis at 3 times IC50 by light microscopy. The data set is classed as functional, cell-based.
Data set [12] has as its system Plasmodium falciparum. As to the kind of experiment: Antimalarial activity against chloroquine-sensitive Plasmodium falciparum D6 infected in human erythrocytes assessed as inhibition of beta-hematin formation by measuring increase in intracellular free heme level at 2.5 times IC50. In kind it is functional, cell-based. Details: scale not given: the % may be the effect or the level left.

Data set [13] deals with Plasmodium falciparum. As to the kind of experiment: Antimalarial activity against chloroquine-resistant asexual erythrocyte stage of Plasmodium falciparum K1 infected in human type O+ erythrocytes assessed as growth inhibition incubated for 72 hrs by NBT dye based LDH release assay. In kind it is functional, cell-based. Conditions: K1, 72 h.
In data set [14] the test system is Plasmodium falciparum. As to the kind of experiment: Inhibition of beta-hematin formation in human erythrocytes infected with chloroquine-sensitive Plasmodium falciparum D6 assessed as increase in intracellular free heme level by SYBR Green I fluorescence assay. On the set-up: scale not given: the % may be the effect or the level left.

A word on the IC50: it is the concentration at which inhibition is half-maximal. For `COc1cc(-c2nc(-c3ccccc3)c(-c3ccccc3)[nH]2)cc(OC)c1OC`, the IC50 was 10.9 µM in [1] and 3 µM in the data set on Plasmodium falciparum [2].

`COc1cc(-c2nc(-c3ccccc3)c(-c3ccccc3)[nH]2)cc(OC)c1O`: the IC50 in the data set on Plasmodium falciparum [3] came out at 1900 nM; in [1], 10.2 µM; with Plasmodium falciparum [2], 1.3 µM. The “Ratio IC50” value in data set [4] is 1.5.

On to `COc1cc(-c2nc(-c3ccccc3)c(-c3ccc(Br)cc3)[nH]2)cc(OC)c1O`, for which the results for the IC50 (with Plasmodium falciparum [5]; in data set [1]) were 310 nM and 12.6 µM, respectively.

As to `Brc1ccc2[nH]cc(-c3nc(-c4ccccc4)c(-c4ccccc4)[nH]3)c2c1`, the IC50 in the data set with Plasmodium falciparum [5] came out at 2240 nM; in data set [1] it was 12.7 µM.

In the case of `O=[N+]([O-])c1ccc(-c2nc(-c3ccccc3)c(-c3ccccc3)[nH]2)cc1`, in [6], the selectivity ratio came to 7.8. Moreover, the Activity in [7] was 149 µM; in the data set on Plasmodium falciparum [8] it was > 20 fg. In addition, the concentration for half-maximal inhibition (IC50) in data set [1] worked out at 19 µM; in the data set with Plasmodium falciparum [2], 15 µM.

Consider `FC(F)(F)Oc1ccc(-c2nc(-c3ccccc3)c(-c3ccccc3)[nH]2)cc1`, for which the result with Plasmodium falciparum [9], in the data set on Plasmodium falciparum [10] and in the data set with Plasmodium falciparum [11] was Active. Besides, the selectivity ratio in data set [6] amounted to 6.9. Further, the Activity in data set [7] came out at 29 µM. Besides, the figures for the IC50 (in [1]; with Plasmodium falciparum [2]) were > 1000 µM and 4.2 µM, respectively.

As to `COc1ccc(-c2nc(-c3cc(OC)cc(OC)c3)[nH]c2-c2ccc(OC)cc2)cc1`, the IC50 in the data set on Plasmodium falciparum [3] worked out at 1800 nM; in data set [1], 13.8 µM; in the data set with Plasmodium falciparum [2] it was 1.7 µM. The “Ratio IC50” value in data set [4] was determined as 1.1. The selectivity ratio in data set [6] is > 141. For the same compound, the Activity in data set [7] is > 240 µM; with Plasmodium falciparum [12], > 50%; in the data set on Plasmodium falciparum [8], “Dose dependent effect”.

Take `Oc1ccc(-c2ncc[nH]2)cc1`: the IC50 is 347 µM in data set [1] and > 20 µM with Plasmodium falciparum [2].

Compound `CCN(CC)CCCC(C)Nc1ccnc2cc(Cl)ccc12` (stereo not given) [CHLOROQUINE] registered an IC50 in [1] of 315 µM.

Take `COc1cc(OC)c(-c2nc(-c3ccsc3)c(-c3ccccc3)[nH]2)cc1OC`: the IC50 amounted to 11700 nM with Plasmodium falciparum [5] and 10 µM in data set [1].

As for `Nc1ccc(-c2nc(-c3ccccc3)c(-c3ccccc3)[nH]2)cc1`, the IC50 in data set [1] was found to be 16.1 µM; with Plasmodium falciparum [2], 42 µM.

For `COc1cc(OC)cc(-c2nc(-c3ccccc3)c(-c3ccccc3)[nH]2)c1`, the “Ratio IC50” value in data set [4] is recorded as 0.7. The selectivity ratio in data set [6] was > 206. For the same compound, the results for the Activity (in data set [7]; in the data set with Plasmodium falciparum [12]; in the data set on Plasmodium falciparum [8]) were > 269 µM, > 50% and “Dose dependent effect”, respectively. In addition, the IC50 was 14.6 µM in [1], 4.7 µM with Plasmodium falciparum [13] and 7 µM in the data set with Plasmodium falciparum [2].

For `COc1cc(-c2nc(-c3ccc4c(c3)S(=O)(=O)c3ccccc3-4)c(-c3ccccc3)[nH]2)cc(OC)c1O`, the IC50 is 610 nM in the data set on Plasmodium falciparum [5] and 6.2 µM in [1].

Consider `Oc1ccc(-c2nc(-c3ccccc3)c(-c3ccccc3)[nH]2)cc1`, for which the results for the IC50 (in [1]; in the data set on Plasmodium falciparum [2]) were 17.7 µM and > 32 µM, respectively.

Take `c1ccc(-c2nc(-c3ccccc3)c(-c3ccccc3)[nH]2)cc1`: the IC50 is > 20000 nM with Plasmodium falciparum [5] and > 1000 µM in data set [1].

On to `CCOc1cc(-c2nc(-c3ccc(F)cc3)c(-c3ccc(F)cc3)[nH]2)ccc1O`, for which the IC50 turned out to be 2400 nM with Plasmodium falciparum [5] and 18.7 µM in data set [1].

On to `COc1cc(OC)cc(-c2nc(-c3ccccc3)c(-c3ccc(Cl)cc3)[nH]2)c1`, for which the IC50 in the data set on Plasmodium falciparum [3] worked out at 2700 nM; in [1], 16.6 µM; in the data set with Plasmodium falciparum [2] it was 1.7 µM. Also, in [4], the “Ratio IC50” value was determined as 1.6.

For the compound `Oc1ccc(-c2nc(-c3ccccc3)c(-c3ccc(Br)cc3)[nH]2)cc1`, the figures for the IC50 (in the data set with Plasmodium falciparum [5]; in [1]) were 9060 nM and 5.6 µM, respectively. Also, in the data set on Plasmodium falciparum [14], the Activity turned out to be 43%.

As for `c1ccc(-c2nc(-c3ccncc3)[nH]c2-c2ccccc2)cc1`, the IC50 in the data set with Plasmodium falciparum [5] is 10800 nM; in [1], 25.4 µM.

Regarding `c1ccc(-c2ncc[nH]2)cc1` [2-PHENYLIMIDAZOLE], the IC50 in [1] was > 1000 µM.

With `COc1cc(-c2nc(-c3ccccc3)c(-c3ccc(O)cc3)[nH]2)cc(OC)c1O`, the IC50 in the data set on Plasmodium falciparum [5] stood at 700 nM; in [1] it was 2.4 µM.

The record behind these values is ChEMBL document CHEMBL3872286, “Identification and Mechanistic Evaluation of Hemozoin-Inhibiting Triarylimidazoles Active against Plasmodium falciparum” (ACS Med Chem Lett, 2017).
